Here are results for one molecule from patent publication US20150050677A1, “METHODS AND SYSTEMS FOR MEASURING WHOLE BLOOD PLATELET REACTIVITY” (University of Massachusetts Medical School, priority 2013, published 2015).

For experiment [1], the system named is ADP-induced platelet aggregation. The conditions noted are these: P<0.0001. How it is done:
After collection of baseline blood samples but prior to coronary angiography, subjects were administered a loading dose of 300-600 mg clopidogrel. Percutaneous coronary intervention (PCI) was performed at the same time on an ad hoc basis at the discretion of the treating physician. Patients were excluded from further analysis if a glycoprotein IIb/IIIa antagonist was used during PCI.
Blood samples were collected at baseline, prior to clopidogrel administration, and 6-24 hours later, after the catheterization procedure. After discarding the first 10 ml, blood was collected into siliconized glass vacutainers containing 3.2% sodium citrate (for platelet function testing and measurement of fibrinogen and vonWillebrand factor antigen) or EDTA-containing vacutainers (for complete blood counts). The samples were maintained at room temperature and hand-delivered to the laboratory where platelet function analyses were performed within 60 minutes of collection. Aliquots of centrifuged platelet-poor plasma and serum were stored at −70° C. until batch analyzed.
Citrated blood was centrifuged to obtain platelet-rich plasma (PRP) and adjusted to a final platelet count of 180,000 mm^−3 as previously described. […]

The test system is the same in experiment [2]. The conditions noted are these: for Number of subjects with clopidogrel HTPR by original PRU: post-clopidogrel.
The test system of experiment [3] is maximal platelet reactivity (iso-TRAP-induced platelet activation). Particulars: 6-24 hours after 300-600 mg clopidogrel loading; pre-clopidogrel 279±47; p<0.0001; mean±SD.
The test system of experiment [4] is platelet reactivity (PRU). Particulars: PRU value >208; of the 3283 patients screened; cited from earlier work.
Experiment [5] has as its system platelet reactivity (PRU). The conditions noted are these: PRU≧235; of the 1213 patients in the assay-guided group; cited from earlier work.

Each structure is given as a SMILES string. Read-outs that look alike come from different tables or passages of the source.

Turning to `COC(=O)[C@H](c1ccccc1Cl)N1CCc2sccc2C1` [clopidogrel], the “median aggregation by WBA after clopidogrel loading” value in experiment [1] (10 μM ADP, fell from 16 (IQR;11,24)) is recorded as 4 (IQR; 0,12) ohms. Also, the “median aggregation by LTA after clopidogrel loading” value in experiment [1] (20 μM ADP, fell from 84 (IQR;71, 94)) was 52 (IQR;37,70) percent. In experiment [2] (6-24 hours after 300-600 mg clopidogrel loading, pre-clopidogrel 287±56, p<0.0001, mean±SD), the “mean VerifyNow PRU following clopidogrel loading” value is 179±90 PRU. Besides, the “Number of subjects with clopidogrel HTPR by Corrected PRU” value in experiment [2] (PRU threshold ≧178, PRU corrected for hematocrit (7.5 PRU per percent around 42%)) was 46 (48%) subjects (%); in experiment [2] (PRU threshold ≧208, PRU corrected for hematocrit), 33 (34%) subjects (%); in experiment [2] (PRU threshold ≧230, PRU corrected for hematocrit), 21 (22%) subjects (%); in experiment [2] (PRU threshold ≧235, PRU corrected for hematocrit), 19 (20%) subjects (%); in experiment [2] (PRU threshold ≧236, PRU corrected for hematocrit), 18 (19%) subjects (%). Also, the “Number of subjects with clopidogrel HTPR by original PRU” value in experiment [2] (PRU threshold ≧178) is recorded as 50 (51%) subjects (%); in experiment [2] (PRU threshold ≧208), 39 (40%) subjects (%); in experiment [2] (PRU threshold ≧230), 31 (32%) subjects (%); in experiment [2] (PRU threshold ≧235), 30 (31%) subjects (%); in experiment [2] (PRU threshold ≧236) it was 30 (31%) subjects (%). The “change in PRU following clopidogrel loading (mean PRU)” value in experiment [2] (subjects with anemia) was 106±89 PRU; in experiment [2] (subjects without anemia, p=0.96 vs anemia), 107±85 PRU. In experiment [3], the “mean BASE following clopidogrel loading” value turned out to be 298±53 Base units. For the same molecule, the “patients classified as having HTPR” value in experiment [4] was 625 patients. Also, in experiment [5], the “patients with clopidogrel HTPR” value is recorded as 419 (35%) patients (%).
